This is an account of results in patent US8471005B2 (Cephalon, Inc., priority 2008, dated 2013).

Read-outs that look alike come from different tables or passages of the source.

The target in one assay is T1, JAK2 (Homo sapiens, UniProt O60674).
T1 construct: host or cells: baculovirus expression system
The assay can be described thus: Recombinant Human JAK2 Kinase Assay (TRF). It counts as biochemical. Conditions: read-out: JAK2 Potency. The method, boiled down: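 Baculovirus-expressed JAK2 (15 ng/ml) phosphorylated a biotinylated 15-mer peptide captured on Neutravidin-coated plates, in 20 mM HEPES pH 7.2 with 0.2 μM ATP, 1 mM MnCl2, 0.1% BSA and 2.5% DMSO. Reaction ran 20 min at room temperature; phosphopeptide was detected by time-resolved fluorescence with Eu-N1-labelled PY100 antibody.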

In the next assay the target is T2, ALK (Homo sapiens, UniProt Q9UM73).
T2 construct: host or cells: baculovirus expression system
T2 sequence (Q9UM73 19-1620): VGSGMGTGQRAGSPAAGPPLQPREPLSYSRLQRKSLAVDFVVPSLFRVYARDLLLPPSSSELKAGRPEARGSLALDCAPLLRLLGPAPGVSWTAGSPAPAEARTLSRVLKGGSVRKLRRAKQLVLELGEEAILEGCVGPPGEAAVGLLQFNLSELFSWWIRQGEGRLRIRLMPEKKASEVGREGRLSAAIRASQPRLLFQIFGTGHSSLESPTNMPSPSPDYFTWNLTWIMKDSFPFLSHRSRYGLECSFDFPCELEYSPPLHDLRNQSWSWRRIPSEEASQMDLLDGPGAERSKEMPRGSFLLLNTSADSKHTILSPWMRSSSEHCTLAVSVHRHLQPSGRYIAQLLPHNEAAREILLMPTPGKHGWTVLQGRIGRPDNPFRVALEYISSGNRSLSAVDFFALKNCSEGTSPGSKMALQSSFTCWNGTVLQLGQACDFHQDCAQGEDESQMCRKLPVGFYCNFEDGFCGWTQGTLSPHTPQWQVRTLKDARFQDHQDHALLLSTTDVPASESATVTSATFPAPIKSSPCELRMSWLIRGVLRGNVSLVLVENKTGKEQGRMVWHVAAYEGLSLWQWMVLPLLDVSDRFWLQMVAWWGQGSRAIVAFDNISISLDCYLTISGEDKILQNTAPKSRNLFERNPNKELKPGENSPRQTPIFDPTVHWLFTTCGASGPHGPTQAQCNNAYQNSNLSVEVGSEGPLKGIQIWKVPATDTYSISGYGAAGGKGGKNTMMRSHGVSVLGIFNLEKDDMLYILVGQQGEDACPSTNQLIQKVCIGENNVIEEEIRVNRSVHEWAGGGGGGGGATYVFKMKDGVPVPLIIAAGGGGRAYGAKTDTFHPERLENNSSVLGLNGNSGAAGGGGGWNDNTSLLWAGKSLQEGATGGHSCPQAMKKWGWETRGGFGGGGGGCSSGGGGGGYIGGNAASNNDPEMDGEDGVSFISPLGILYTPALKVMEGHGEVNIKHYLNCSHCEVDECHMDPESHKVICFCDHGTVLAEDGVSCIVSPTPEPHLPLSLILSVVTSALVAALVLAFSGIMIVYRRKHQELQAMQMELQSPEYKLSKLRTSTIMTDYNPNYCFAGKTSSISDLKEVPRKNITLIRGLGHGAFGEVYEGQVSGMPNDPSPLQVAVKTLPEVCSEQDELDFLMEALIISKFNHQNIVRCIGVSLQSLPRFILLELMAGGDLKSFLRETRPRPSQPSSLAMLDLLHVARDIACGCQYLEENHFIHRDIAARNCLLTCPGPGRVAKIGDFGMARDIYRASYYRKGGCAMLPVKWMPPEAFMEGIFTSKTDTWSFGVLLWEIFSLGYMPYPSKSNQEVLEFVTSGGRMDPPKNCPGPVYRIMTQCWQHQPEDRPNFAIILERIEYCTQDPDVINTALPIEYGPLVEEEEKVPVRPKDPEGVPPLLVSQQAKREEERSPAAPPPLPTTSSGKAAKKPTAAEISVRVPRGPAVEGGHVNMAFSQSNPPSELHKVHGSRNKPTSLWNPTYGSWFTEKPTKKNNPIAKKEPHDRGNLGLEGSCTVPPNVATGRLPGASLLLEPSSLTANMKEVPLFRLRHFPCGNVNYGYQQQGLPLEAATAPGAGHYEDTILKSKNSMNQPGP
The assay can be described thus: ALK Kinase Assay (ELISA/TRF, PLC-γ substrate). The class given is biochemical. Particulars: read-out: ALK Potency. The method, boiled down: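 First, plates are coated with substrate (phospholipase C-γ, 10 μg/mL, TBS). Next, 30 ng/ml ALK initiates phosphorylation for 15 min at 37° C. Then Eu-N1 PT66 antibody is added for detection, and a nonlinear dose-response fit of percent inhibition yields IC50.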
In general terms: ELISA stands for enzyme-linked immunosorbent assay.

The mark [1] stands for this setting: JAK2 kinase inhibition, 0.2 μM ATP.
Setting [2] is: ALK kinase inhibition, 1 μM ATP.

T1 sequence (O60674 whole entry): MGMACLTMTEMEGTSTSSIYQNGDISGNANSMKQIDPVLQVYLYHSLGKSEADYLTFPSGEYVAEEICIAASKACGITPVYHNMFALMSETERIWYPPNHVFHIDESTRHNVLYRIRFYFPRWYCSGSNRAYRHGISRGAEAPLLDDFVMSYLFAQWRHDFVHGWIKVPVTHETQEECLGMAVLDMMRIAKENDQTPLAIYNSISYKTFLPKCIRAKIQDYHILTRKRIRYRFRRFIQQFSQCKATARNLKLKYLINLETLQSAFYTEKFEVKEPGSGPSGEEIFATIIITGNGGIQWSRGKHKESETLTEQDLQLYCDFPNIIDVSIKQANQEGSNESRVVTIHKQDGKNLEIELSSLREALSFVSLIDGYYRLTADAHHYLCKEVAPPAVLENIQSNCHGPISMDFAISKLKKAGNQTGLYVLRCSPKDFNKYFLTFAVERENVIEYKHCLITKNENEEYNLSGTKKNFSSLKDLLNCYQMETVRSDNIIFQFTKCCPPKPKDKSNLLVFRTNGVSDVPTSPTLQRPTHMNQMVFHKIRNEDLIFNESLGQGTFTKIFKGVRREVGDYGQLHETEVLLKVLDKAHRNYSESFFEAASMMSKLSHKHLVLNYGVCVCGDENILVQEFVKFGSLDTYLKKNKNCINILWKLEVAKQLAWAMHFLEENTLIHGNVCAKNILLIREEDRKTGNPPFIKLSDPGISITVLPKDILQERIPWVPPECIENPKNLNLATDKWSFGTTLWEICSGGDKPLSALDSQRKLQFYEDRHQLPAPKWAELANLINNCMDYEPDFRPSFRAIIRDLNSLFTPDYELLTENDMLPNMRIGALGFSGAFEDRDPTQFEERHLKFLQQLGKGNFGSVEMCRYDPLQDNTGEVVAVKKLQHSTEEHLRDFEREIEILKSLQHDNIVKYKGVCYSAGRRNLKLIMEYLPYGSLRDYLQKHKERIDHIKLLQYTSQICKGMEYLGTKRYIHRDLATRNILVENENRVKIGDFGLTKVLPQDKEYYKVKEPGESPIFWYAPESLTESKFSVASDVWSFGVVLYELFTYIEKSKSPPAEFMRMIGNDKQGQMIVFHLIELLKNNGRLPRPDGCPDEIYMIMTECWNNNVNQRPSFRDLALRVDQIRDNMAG

With “N-{2-[2-(1-Methyl-2-oxo-2,3,4,5-tetrahydro-1H-benzo[b]azepin-7-ylamino)pyrrolo[2,1-f][1,2,4]triazin-7-yl]-phenyl}methanesulfonamide [Example 625]”, the IC50 at JAK2 (setting [1]) is less than 0.1 µM; on ALK (setting [2]), 0.1 to 1 µM.
With “N-{2-[2-(2-Oxo-2,3-dihydro-benzooxazol-6-ylamino)pyrrolo[2,1-f][1,2,4]triazin-7-yl]phenyl}methanesulfonamide [Example 629]”, the results for the IC50 on JAK2 (setting [1]) and on ALK (setting [2]) were less than 0.1 µM and 0.1 to 1 µM, respectively.
For “N-{2-[2-(3,3-Dimethyl-2-oxo-2,3-dihydro-1H-indol-6-ylmethyl)-pyrrolo[2,1-f][1,2,4]triazin-7-yl]-phenyl}-N-methyl-methanesulfonamide [Example 661]” the same measures were less than 0.1 µM and 0.1 to 1 µM.
As for “N-{2-[2-(4-{4-[1-(2-Hydroxy-ethyl)-piperidin-4-yl]-[1,4]diazepan-1-yl}-2-methoxy-phenylamino)-pyrrolo[2,1-f][1,2,4]triazin-7-yl]-phenyl}-N-methyl-methanesulfonamide [Example 802]”, the IC50 at JAK2 (setting [1]) was 1 to 10 µM; at ALK (setting [2]), less than 0.1 µM.
With “N-{2-[2-(4-{4-[(2-Hydroxy-ethyl)-methyl-amino]-piperidin-1-yl}-2-ethoxy-phenylamino)-pyrrolo[2,1-f][1,2,4]triazin-7-yl]-phenyl}-N-methyl-methanesulfonamide [Example 795]”, the IC50 at JAK2 (setting [1]) was 0.1 to 1 µM; at ALK (setting [2]), less than 0.1 µM.
In the case of “N-{2-[2-(5,5-Dimethyl-2-oxo-2,3,4,5-tetrahydro-1H-benzo[b]azepin-7-ylamino)pyrrolo[2,1-f][1,2,4]triazin-7-yl}-phenyl]methanesulfonamide [Example 624]”, the IC50 on JAK2 (setting [1]) and on ALK (setting [2]) was less than 0.1 µM in each case.
Turning to “N-{2-tert-Butyl-5-[7-(5-chloro-2-methoxy-phenyl)-pyrrolo[2,1-f][1,2,4]triazin-2-ylamino]-phenyl}-acetamide [Example 305]”, the IC50 on JAK2 (JAK2 Kinase Inhibition) was less than 0.1 µM; on ALK (ALK Kinase Inhibition) it was 0.1 to 1 µM.
Turning to “[4-(4-Diethylamino-piperidin-1-yl)-phenyl]-[7-(4-methanesulfonyl-phenyl)-pyrrolo[2,1-f][1,2,4]triazin-2-yl]-amine [Example 1136]”, the IC50 at JAK2 (setting [1]) is less than 0.1 µM; at ALK (setting [2]), 0.1 to 1 µM.
On to “[5-Bromo-7-(4-methanesulfonyl-phenyl)-pyrrolo[2,1-f][1,2,4]triazin-2-yl]-(4-morpholin-4-yl-phenyl)-amine [Example 99]”, for which the IC50 is less than 0.1 µM on JAK2 (JAK2 Kinase Inhibition) and more than 10 µM at ALK (ALK Kinase Inhibition).
Consider “[7-(2-Methoxy-phenyl)-pyrrolo[2,1-f][1,2,4]triazin-2-yl]-(2-methyl-1,2,3,4-tetrahydro-isoquinolin-7-yl)-amine [Example 984]”, for which the IC50 on JAK2 (setting [1]) was less than 0.1 µM; on ALK (setting [2]), 0.1 to 1 µM.
“[7-(3-Chloro-phenyl)-pyrrolo[2,1-f][1,2,4]triazin-2-yl]-{4-[2-(4-ethyl-piperazin-1-yl)-ethoxy]-phenyl}-amine [Example 93]”: the IC50 at JAK2 (JAK2 Kinase Inhibition) and at ALK (ALK Kinase Inhibition) was less than 0.1 µM each time.
Turning to “[7-(4-Methanesulfonyl-phenyl)-pyrrolo[2,1-f][1,2,4]triazin-2-yl]-(4-morpholin-4-yl-phenyl)-amine [Example 38]”, the figures for the IC50 on JAK2 (JAK2 Kinase Inhibition) and at ALK (ALK Kinase Inhibition) were less than 0.1 µM and 0.1 to 1 µM, respectively.
On to “[7-(4-Methanesulfonyl-phenyl)-pyrrolo[2,1-f][1,2,4]triazin-2-yl]-(4-piperidin-1-yl-phenyl)-amine [Example 85]”, for which the IC50 on JAK2 (JAK2 Kinase Inhibition) was less than 0.1 µM; at ALK (ALK Kinase Inhibition), more than 10 µM.
As for “[7-(4-Methanesulfonyl-phenyl)-pyrrolo[2,1-f][1,2,4]triazin-2-yl]-[2-methoxy-4-(4-methyl-piperazin-1-yl)-phenyl]-amine [Example 1126]”, the IC50 on JAK2 (setting [1]) and on ALK (setting [2]) was less than 0.1 µM throughout.
For the substance “[7-(6-Methoxy-pyridin-3-yl)-pyrrolo[2,1-f][1,2,4]triazin-2-yl]-(2-methyl-1,2,3,4-tetrahydro-isoquinolin-7-yl)-amine [Example 985]”, the IC50 on JAK2 (setting [1]) and at ALK (setting [2]) was less than 0.1 µM each time.
With “{6-[7-(3-tert-Butylsulfamoyl-phenyl)-pyrrolo[2,1-f][1,2,4]triazin-2-yl amino]-2-hydroxy-indan-1-yl}-carbamic acid tert-butyl ester [Example 672]”, the IC50 at JAK2 (setting [1]) was less than 0.1 µM; at ALK (setting [2]) it was 0.1 to 1 µM.
